Test results reported in the NIST ThermoML archive (doi:10.1021/je900285w).
Numbers after ± are expanded uncertainties.

How the values were obtained:
[1] = molar heat capacity at constant pressure; conditions: 101.33 kPa, Crystal
[2] = Molar enthalpy of transition or fusion; conditions: Crystal; DSC
[3] = Crystal; DTA

OC[C@@H](O)[C@@H](O)[C@H](O)[C@H](O)CO [D-mannitol]
[1]
Conditions	molar heat capacity at constant pressure [J/K/mol]
80 K	70.46 ± 1.4
80.42 K	71.86 ± 1.4
84.12 K	75.82 ± 1.5
85 K	76.73 ± 1.5
87.06 K	79 ± 1.5
90 K	82.37 ± 1.6
90.04 K	82.17 ± 1.6
93.09 K	85.24 ± 1.7
95 K	87.51 ± 1.7
96.04 K	88 ± 1.7
99.05 K	90.89 ± 1.8
100 K	92.23 ± 1.8
102.11 K	93.72 ± 1.8
105 K	96.64 ± 1.8
105.11 K	96.44 ± 1.8
108.05 K	98.92 ± 1.9
110 K	100.8 ± 1.9
111.06 K	101.4 ± 1.9
114.14 K	104 ± 1.9
115 K	104.8 ± 1.9
117.16 K	106.5 ± 1.9
120 K	108.7 ± 2
120.11 K	109 ± 2
123.13 K	111.5 ± 2
125 K	112.5 ± 2
126.22 K	113.8 ± 2
129.26 K	116.1 ± 2.1
130 K	116.2 ± 2.1
132.27 K	118.9 ± 2.1
135 K	120 ± 2.1
135.24 K	120.9 ± 2.1
138.18 K	123 ± 2.1
140 K	123.8 ± 2.2
141.2 K	125.4 ± 2.2
144.28 K	127.8 ± 2.2
145 K	127.7 ± 2.2
147.31 K	129.9 ± 2.2
150 K	131.6 ± 2.3
150.31 K	132.2 ± 2.3
153.28 K	134.4 ± 2.3
155 K	135.6 ± 2.3
156.23 K	136.7 ± 2.3
159.25 K	138.8 ± 2.3
160 K	139.7 ± 2.4
162.37 K	141.7 ± 2.4
165 K	143.9 ± 2.4
165.49 K	143.2 ± 2.4
168.58 K	146.4 ± 2.4
170 K	148.2 ± 2.5
171.61 K	149.2 ± 2.5
174.59 K	150.8 ± 2.5
175 K	152.5 ± 2.5
177.6 K	152.9 ± 2.5
180 K	156.9 ± 2.6
180.59 K	156.6 ± 2.6
183.61 K	159.2 ± 2.6
185 K	161.4 ± 2.6
186.66 K	162.1 ± 2.6
189.7 K	165 ± 2.7
190 K	166 ± 2.7
192.75 K	168.2 ± 2.7
195 K	170.6 ± 2.7
195.81 K	170.5 ± 2.7
198.93 K	173.9 ± 2.8
200 K	175.2 ± 2.8
202.13 K	176.6 ± 2.8
205 K	179.9 ± 2.8
205.3 K	180.9 ± 2.9
208.4 K	184.3 ± 2.9
210 K	184.6 ± 2.9
211.46 K	187.3 ± 2.9
214.49 K	189.7 ± 3
215 K	189.3 ± 3
217.58 K	192.1 ± 3
220 K	193.9 ± 3
220.74 K	195.4 ± 3
223.88 K	198.8 ± 3.1
225 K	198.6 ± 3.1
226.99 K	202.7 ± 3.1
230 K	203.2 ± 3.1
230.03 K	204.2 ± 3.2
233.09 K	207.6 ± 3.2
235 K	207.8 ± 3.2
236.15 K	210.5 ± 3.2
239.22 K	213.4 ± 3.3
242.24 K	215.7 ± 3.3
245.33 K	217.7 ± 3.3
248.42 K	220 ± 3.3
251.42 K	221.4 ± 3.4
254.48 K	223.2 ± 3.4
257.61 K	226.2 ± 3.4
260.73 K	228 ± 3.4
263.83 K	230.7 ± 3.5
266.98 K	233.6 ± 3.5
270.15 K	236.1 ± 3.5
273.22 K	239.5 ± 3.6
276.28 K	242.1 ± 3.6
279.35 K	245.4 ± 3.7
282.41 K	248.6 ± 3.7
285.44 K	251.6 ± 3.7
288.45 K	253.1 ± 3.8
291.43 K	256 ± 3.8
294.39 K	259 ± 3.8
297.49 K	260.6 ± 3.8
300.61 K	262.6 ± 3.9
303.63 K	264.9 ± 3.9
306.66 K	266.7 ± 3.9
309.69 K	268.4 ± 3.9
312.78 K	270.6 ± 4
315.92 K	272.9 ± 4
319.06 K	275.3 ± 4
322.19 K	277.9 ± 4.1
325.3 K	280.3 ± 4.1
328.4 K	282.6 ± 4.1
331.49 K	284.8 ± 4.1
334.56 K	286.1 ± 4.2
337.63 K	289 ± 4.2
340.68 K	291.4 ± 4.2
343.78 K	293.3 ± 4.3
346.92 K	295.5 ± 4.3
350.05 K	297.6 ± 4.3
353.16 K	299.6 ± 4.3
356.26 K	301.3 ± 4.4
359.31 K	303.7 ± 4.4
362.51 K	305.8 ± 4.4
365.68 K	308.4 ± 4.4
368.86 K	310.2 ± 4.5
372.04 K	311.9 ± 4.5
375.21 K	314 ± 4.5
378.35 K	316.7 ± 4.5
381.44 K	319 ± 4.6
384.52 K	320.9 ± 4.6
387.64 K	322.7 ± 4.6

Conditions	Molar enthalpy of transition or fusion [kJ/mol]	Normal melting temperature [°C]
[2]	54.7 ± 3.4	–
[3]	–	164.10 ± 0.43
